These results are taken from patent US20120142766A1, “SUBSTITUTED 1,3-DIOXANES AND THEIR USES” (EVOLVA SA, priority 2007, published 2012).

The test concerns the target T1, Human Recombinant (E. coli) PPARgamma (Homo sapiens, UniProt P37231).
T1 construct: host or cells: E. coli
T1 sequence (P37231 1-505): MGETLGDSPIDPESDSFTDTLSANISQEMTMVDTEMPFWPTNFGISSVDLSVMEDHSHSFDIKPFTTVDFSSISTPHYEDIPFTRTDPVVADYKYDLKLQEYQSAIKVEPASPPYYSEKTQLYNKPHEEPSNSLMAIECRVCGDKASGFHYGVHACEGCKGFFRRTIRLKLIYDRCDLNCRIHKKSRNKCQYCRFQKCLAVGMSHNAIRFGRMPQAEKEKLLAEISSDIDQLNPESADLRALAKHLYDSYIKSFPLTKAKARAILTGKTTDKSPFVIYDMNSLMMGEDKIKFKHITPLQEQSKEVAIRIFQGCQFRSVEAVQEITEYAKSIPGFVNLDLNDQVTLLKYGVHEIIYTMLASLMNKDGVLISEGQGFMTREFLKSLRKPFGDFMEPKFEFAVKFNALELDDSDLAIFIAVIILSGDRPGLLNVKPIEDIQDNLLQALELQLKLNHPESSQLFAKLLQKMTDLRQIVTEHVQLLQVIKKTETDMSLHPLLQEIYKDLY
Nature of the test: PPAR gamma binding assay ([3H]-rosiglitazone). Conditions: [3H]-rosiglitazone 10 nM. Here is the method:
Incubation: 120 min. at 4° C.
The results are expressed as a percent of control specific binding ((measured specific binding/control specific binding)×100) obtained in the presence of the test compounds. The IC50 values (concentration causing a half-maximal inhibition of control specific binding) and Hill coefficients (nil) were determined by non-linear regression analysis of the competition curves generated with mean replicate values using Hill equation curve fitting (Y=D+[(A−D)/(1+(C/C50)nH)], where Y=specific binding, D=minimum specific binding, A=maximum specific binding, C=compound concentration, C50=IC50, and nH=slope factor). This analysis was performed using a software developed at Cerep (Hill software) and validated by comparison with data generated by the commercial software SigmaPlot® 4.0 for Windows® (© 1997 by SPSS Inc.). The inhibition constants (Ki) were calculated using the Cheng Prusoff equation (Ki=IC50/(1+(L/KD)), where L=concentration of radioligand in the assay, and KD=affinity of the radioligand for the receptor).

SMILES strings stand for the structures. Several values for one entry are separate records, joined by “and”; a condition that tells them apart may be missing. Identical values can stand only once.

In general, Ki refers to a measure of affinity in units of concentration, obtained from inhibition or displacement. The term IC50 denotes the concentration at which inhibition is half-maximal.

Turning to `O=C(O)CC/C=C\C[C@@H]1CO[C@H](c2ccccc2Cl)O[C@@H]1c1ccccc1O` [Compound C, (Z)-6-((2S,4S,5R)-2-(2-chlorophenyl)-4-(2-hydroxyphenyl)-1,3-dioxan-5-yl)hex-4-enoic acid], the inhibition constant (Ki) (Cheng Prusoff, read-out: PPARγ binding Ki) is 1.8 µM and 4.3 µM. Further, the IC50 (read-out: PPARγ binding IC50) is 4.9 µM and 12 µM.
